Values quoted from earlier work, collected in patent US7449451B2, “Use of multiple antioxidant micronutrients as systemic biological radioprotective agents against potential ionizing radiation risks” (priority 2002, dated 2008).

Key:
[1] = test system: mammalian cells in culture
[2] = in vivo
mitotic cells = mitotic cells treated with cysteamine

Molecule: CC1=C(/C=C/C(C)=C/C=C/C(C)=C/C=C/C=C(C)/C=C/C=C(C)/C=C/C2=C(C)CCCC2(C)C)C(C)(C)CCC1 [natural beta-carotene, beta-carotene]
- radioprotectant value (animals and humans): marked radioprotectant value
- reduction of radiation-induced transformation [1]: most effectively reduces radiation-induced transformation

Molecule: calcium ascorbate [vitamin C]
- radioprotectant value (animals and humans): marked radioprotectant value

Molecule: Cc1c(C)c2c(c(C)c1OC(=O)CCC(=O)O)CC[C@@](C)(CCC[C@H](C)CCC[C@H](C)CCCC(C)C)O2 [d-alpha tocopheryl succinate]
- radioprotectant value (animals and humans): marked radioprotectant value
- reduction of radiation-induced transformation [1]: actively reduces the incidence of radiation-induced transformation

Molecule: N[C@@H](CCC(=O)N[C@@H](CS)C(=O)NCC(=O)O)C(=O)O [Glutathione, glutathione]
- hydrolysis in the intestine when ingested [2]: completely hydrolyzed in the intestine

Molecule: O=C(O)CCCCC1CCSS1 (stereo not drawn) [alpha lipoic acid]
- intracellular levels of glutathione (glutathione): actively increase the intracellular levels of glutathione without causing any toxicity
- tolerability in humans (human beings): tolerated by humans very well

Molecule: CC(=O)N[C@@H](CS)C(=O)O [N-acetylcysteine]
- intracellular levels of glutathione (glutathione): actively increase the intracellular levels of glutathione without causing any toxicity
- tolerability in humans (human beings): tolerated by humans very well

Molecule: vitamin E
- protection against lethal doses of cobalt-60 (mice): good protection

Molecule: NCCS [cysteamine]
- resistance of mitotic cells to radiation (mitotic cells): became very resistant to radiation
- protection against bone marrow and gastrointestinal radiation syndromes (animals): protects animals against bone marrow (2, 31) and gastrointestinal (32) radiation syndromes
- toxicity when administered to human beings (human beings; humans): extremely toxic
